The record followed here is patent publication US20040232089A1, “Biocidal compounds for treating water” (VANETTA S.p.A., priority 2003, published 2004).

Series [1] can be described thus: Hydrolysis test carried out in the dark. It is filed as physicochemical. The text has this:
From the hydrolysis test carried out in the dark, MNB and MPB appear to be readily degradable at a pH compatible with environmental conditions.

Series [2] is described as follows: Photo-degradability under daylight and UV. It counts as physicochemical. The settings on record: 10 ppm in drinking water (pH 6,5-7,5). The method, then:
Similarly, the same behaviour is confirmed when evaluating the photo-degradability under daylight and UV (the irradiation test is carried out on a solution of 10 ppm in drinking water (pH 6,5-7,5)).

On series [3], the source says: As reminded often, the water solubility is an essential feature for the candidate biocide to be used successfully in the biological control of water.
The nature of series [4]: Biodegradability OECD 301 A (92/69/EEC C4-A). The settings on record: 7 days after the beginning of the test. The method, then:
In fact, based on data available with respect to the most similar compounds to the menadione derivatives disclosed herein, one would expect a degradability in the range of 0% (percentage calculated based on the initial mass expressed in mg/l) typical of menadione (2-methyl-1,4-naphthalenedione) and 17% (assessed after 28 days) typical of menadione sodium bisulphite (which calculation was performed in accordance with the guidelines OECD301 A attached to directive EEC 92/69/EEC C4-A).
Finally biodegradability was also evaluated according to standard 92/69/EEC C4-A. From the data, both MNB and MPB result to have a remarkably better biodegradability than 2-methyl-1,4-naphthalenedione and particularly than MSB.

Turning to `CC1=CC(=O)c2ccccc2C1=O` [Menadione, 2-methyl-1,4-naphthalenedione, reference compound], the “½ LIFE (hydrolysis)” value is reported as 1500 h in series [1] (pH 6, 8, in the dark) and 550 h in series [1] (pH 9, in the dark). Besides, the “Light exp. Tot Degr.” value in series [2] is reported as more than 5000 h. For the same compound, in series [2], the “Light exp. ½ life” value is 1500 h. Besides, the “Sol. in H2O” value in series [3] is “ins”.

In the case of `O=C1C=CC(=O)c2c(O)cccc21` [Juglone, 5-hydroxy-1,4-naphthalenedione, reference compound], the “½ LIFE (hydrolysis)” value in series [1] (pH 6, 8, in the dark) is listed as more than 288 h; in series [1] (pH 9, in the dark) it was 15 h. The “Light exp. Tot Degr.” value in series [2] worked out at 48 h.

`CC1(S(=O)(=O)O)CC(=O)c2ccccc2C1=O.Cc1cc(C)[nH]c(=O)n1` (centres unmarked) [MPB, menadione dimethylpyrimidinole bisulphite]: the “½ LIFE (hydrolysis)” value was 48 h in series [1] (pH 6, 8, in the dark) and less than 3 h in series [1] (pH 9, in the dark). The “Light exp. Tot Degr.” value in series [2] worked out at 48 h. In series [2], the “Light exp. ½ life” value is listed as 10 h. The “degradability relative to that of MSB” value in series [4] is recorded as “eight”. The “Sol. in H2O” value in series [3] was determined as 10 gr/l.
